Measurements published in US8809377B2, “Deubiquitinase inhibitors and methods for use of the same” (The Regents of the University of Michigan, priority 2010, dated 2014).

Assays:
Murine norovirus (MNV) = assay: Murine norovirus plaque assay; assay type: cell-based; conditions: Norwalk virus, RAW264.7, MNV, murine macrophages (RAW264.7 or bone marrow derived), 5 μM, 30 min pre-treatment, 8-12 hr; read-out: Log inhibition by plaque assay
Protocol: Viral titers were determined by plaque assay.
Cells were treated with IFN-β as a positive anti-viral control.

Z138 = assay: MTT cell growth, survival and apoptosis; conditions: Z138 cell line
Protocol: Cells were seeded in a 96-well plate at 5,000 cells per well in the presence of increasing concentration of WP1130 for 3 days in a CO2 incubator at 37° C. 20 μL of 5 g/L 3-(4,5-dimethylthiazol-2-yl)-2,5-diphenyltetrazolium bromide (MTT) solution was added to each well for 2 h at 37° C. The cells were then lysed in 10% SDS-buffer and absorbance at 570 nm relative to a reference wavelength of 630 nm was determined with a microplate reader. The concentrations resulting in 50% inhibition of cell growth (IC50 values) were calculated.
Annexin V and propidium iodide (PI) staining were used to measure apoptosis in WP1130 treated cells. Briefly, 10^5/mL cells were harvested from tissue culture plates and centrifuged at 2500 rpm for 5 min at room temperature. Media supernatant was removed and cells were washed once in PBS. Cells were then resuspended in 0.4 ml of cold Annexin V binding buffer and Annexin V-FITC and propidium iodide were added. Samples were incubated at room temperature for 10 min in the dark, filtered through nylon mesh, and analyzed by flow cytometry using a FacScan analyzer (Becton-Dickinson, San Jose, Calif.).
Compounds were screened for DUB inhibitory and apoptotic activity in a panel of CML, myeloma and Mantle cell lymphoma cell lines, and compared to WP1130.

USP9X-UCH = target: T1, USP9X-UCH (Homo sapiens, UniProt Q93008); assay type: biochemical; conditions: isolated Usp9x-UCH domain enzyme preparation
T1 sequence (Q93008 1557-1956 limits assumed): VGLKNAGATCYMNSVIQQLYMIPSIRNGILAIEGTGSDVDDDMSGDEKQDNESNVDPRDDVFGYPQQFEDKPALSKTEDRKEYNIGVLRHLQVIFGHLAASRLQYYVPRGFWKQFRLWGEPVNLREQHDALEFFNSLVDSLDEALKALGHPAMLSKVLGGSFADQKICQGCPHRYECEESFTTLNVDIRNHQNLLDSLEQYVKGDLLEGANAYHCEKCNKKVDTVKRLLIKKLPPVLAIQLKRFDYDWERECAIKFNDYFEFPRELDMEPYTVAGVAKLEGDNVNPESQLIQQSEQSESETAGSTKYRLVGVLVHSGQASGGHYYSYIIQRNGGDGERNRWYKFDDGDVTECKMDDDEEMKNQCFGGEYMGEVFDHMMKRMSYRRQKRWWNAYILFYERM
Protocol: Purified DUBs at optimal concentrations (USPS; 20 nM, UCH-L1; 20 nM, UCH-L3; 5 nM, USP9x; immunoprecipitated from 500 μg Z138 cell lysate) were incubated in DUB buffer containing WP1130, vehicle alone (DMSO) or 1 mM NEM (positive control for DUB inhibition) in a 100 μL reaction volume for 30 min. The reaction was initiated by the addition of 500 nM Ub-AMC and the release of AMC-fluorescence was recorded at ex/em 380/480 using a spectrofluorometer.
(§1) Cancer Res, 2010. 70(22): p. […] Blood, 2011. 117(11): p. […] Biochem Pharmacol, 2011. 82(4): p. […] Blood, 2007. 109(8): p. 3470-8.

DUB activity = assay: Western / HA-UbVS labeling of DUB activity in intact cells; assay type: cell-based; conditions: H929, WDT2, Z138 cell lines
Protocol: To assay for changes in activity of cellular deubiquitinase enzymes, leukemic cells were lysed in DUB buffer (50 mM Tris pH 7.4, 5 mM MgCl2, 150 mM NaCl) for 10 min at 4° C. The lysates were centrifuged at 20,000 RCF for 10 min and the supernatant was used for DUB labeling. Equal amounts of lysate were incubated with 500 ng of HA-UbVs for 1 hr at room temperature, followed by boiling in reducing sample buffer and resolving by SDS-PAGE. HA immunoblotting was used to detect DUB labeling.
To assay for changes in activity of cellular deubiquitinase enzymes, Z138 and HEK293 cells were lysed in DUB buffer (50 mM Tris pH 7.4, 5 mM MgCl2, 150 mM NaCl) for 10 min at 4° C. The lysates were centrifuged at 20,000 RFC for 10 min and the supernatant was used for DUB labeling. Equal amounts of lysate were incubated with 500 ng of HA-UbVs for 1 hr at room temperature, followed by boiling in reducing sample buffer and resolving by SDS-PAGE. After protein transfer to nitrocellulose membranes, HA immunoblotting was used to detect DUB labeling.
as §1

USP9X = assay: Western / HA-UbVS labeling of USP9X in intact cells or lysates; assay type: cell-based; conditions: for Western Targets: USP9X: H929, WDT2, Z138 cell lines; for Usp9x activity (HA-UbVs labeling): CML cells treated for 4 hours
cellular DUB activity = assay: DUB activity of lysates from treated cells (Ub-AMC, Ub chain disassembly); assay type: cell-based; design: suppression of cellular DUB activity (ubiquitin-AMC): dose or concentration left out as unconfirmed
Protocol: Cells were lysed in ice cold DUB buffer containing 50 mM Tris-HCl, pH 7.5, 0.5% NP-40, 5 mM MgCl2, 150 mM NaCl and 1 mM phenylmethylsulfonylfluoride. Briefly, 5 μg of clarified lysate from untreated or treated cells was incubated with 500 nM Ub-AMC in a 100 μL reaction volume at 37° C. and the release of AMC fluorescence was recorded at ex/em 380/480 using a spectrofluorometer. USP9x was immunoprecipitated from 500 μg of cell lysate and incubated in DUB buffer containing NEM, WP1130 or DMSO in a 100 μL reaction volume for 30 min. The reaction was initiated by the addition of 500 nM Ub-AMC and the release of AMC-fluorescence was recorded.
In vitro disassembly of purified polyubiquitin chains (K-48/K-63 linked) was performed as previously described. Five μg of lysate from untreated or WP1130 treated cells were prepared in DUB buffer and incubated with K48- or K-63 linked chains (1 μg) for 10 min at 37° C. The extent of chain disassembly was assessed by ubiquitin immunoblotting.
Inhibition of cellular deubiquitinases could lead to an increase in high molecular weight ubiquitinated proteins in the absence of proteasome inhibition. […] To directly assess the impact of WP1130 on DUB activity in treated cells, cell lysates from control and treated cells were incubated with ubiquitin-AMC and fluorescence generated as a consequence of substrate cleavage was measured as an indicator of DUB activity.
The effect of WP1130 treatment on in vitro deubiquitination/disassembly of purified K48-linked or K63-linked polyubiquitin chains was evaluated. Lysates from WP1130 treated (2 hr) or untreated cells were incubated with 1 μg of unanchored polyubiquitin chains for 5, 10 and 15 min at 37° C.

| Structure (SMILES) | log reduction at 5 µM (Murine norovirus (MNV)) | MTT Activity relative to WP1130 (Z138) | AMC Assay on USP9X-UCH Activity relative to WP1130 (USP9X-UCH) | also measured |
| --- | --- | --- | --- | --- |
| CCCC(NC(=O)/C=C/c1cccc(Br)n1)c1ccc(OCCOCCOCCNC(=O)CCCC[C@@H]2SC[C@@H]3NC(=O)N[C@@H]32)cc1 (stereo partly drawn) [Compound 51, N-(2-(2-(2-(4-(1-((E)-3-(6-Bromopyridin-2-yl)acrylamido)butyl)phenoxy)ethoxy)ethoxy)ethyl)-5-((3aS,4S,6aR)-2-oxohexahydro-1H-thieno[3,4-d]imidazol-4-yl)pentanamide] | 0 |  |  |  |
| CCCC(NC(=O)/C(C#N)=C/c1cccc(F)n1)c1ccc(OCCN2CCOCC2)cc1 (stereo not drawn) [Compound 37, (E)-2-Cyano-3-(6-fluoropyridin-2-yl)-N-(1-(4-(2-morpholinoethoxy)phenyl)butyl)acrylamide] | 1 | Less sensitive | No inhibition |  |
| CCC[C@H](NC(=O)/C(C#N)=C/c1cccc(F)n1)c1ccccc1 [Compound 40, (S,E)-2-Cyano-3-(6-fluoropyridin-2-yl)-N-(1-phenylbutyl)acrylamide] | 2 | Less sensitive | Less sensitive |  |
| CCCC(NC(=O)/C(C#N)=C/c1cccc(Br)n1)c1ccc(OC)cc1 (stereo not drawn) [Compound 8, (E)-3-(6-bromopyridin-2-yl)-2-cyano-N-(1-(4-methoxyphenyl)butyl)acrylamide] |  |  |  | Western Targets: DUB activity (DUB activity): USP9X and DUB activity: no effect; Western Targets: USP9X (USP9X): USP9X and DUB activity: no effect |
| CCN1C(=O)C=CC1=O [NEM, N-ethylmaleimide, reference compound] |  |  |  | Ub-AMC hydrolyzing activity of lysates from treated cells (cellular DUB activity; CML cells, WP1130 1-8 hours): completely blocked substrate hydrolysis; suppression of cellular DUB activity (ubiquitin-AMC) (cellular DUB activity; Z138 cells, within 1 hr): 80% |
| CCCC(NC(=O)/C(C#N)=C/c1ncc[nH]1)c1ccc(OCCN(C)C)cc1 (stereo not drawn) [Compound 38, (E)-2-Cyano-N-(1-(4-(2-(dimethylamino)ethoxy)phenyl)butyl)-3-(1H-imidazol-2-yl)acrylamide] | 0.5 | Less sensitive | Inconclusive |  |
| Cc1cnc(Nc2ccc(N3CCN(C)CC3)cc2)nc1Nc1cccc(S(=O)(=O)NC(C)(C)C)c1 [TG101209, reference compound] |  |  |  | Usp9x activity (HA-UbVs labeling) (USP9X): none of the kinase inhibitors examined had significant Usp9x inhibitory activity |
| CCCC(NC(=O)/C(C#N)=C/c1cccc(F)n1)c1ccc(OCCN(CC)CC)cc1 (stereo not drawn) [Compound 34, (E)-2-Cyano-N-(1-(4-(2-(diethylamino)ethoxy)phenyl)butyl)-3-(6-fluoropyridin-2-yl)acrylamide] | 2 | Less sensitive | No inhibition |  |
| CCCC(NC(=O)/C(C#N)=C/c1cccc(F)n1)c1ccc(OCCN2CCCC2)cc1 (stereo not drawn) [Compound 36, (E)-2-Cyano-3-(6-fluoropyridin-2-yl)-N-(1-(4-(2-(pyrrolidin-1-yl)ethoxy)phenyl)butyl)acrylamide] | 2 | Less sensitive | No inhibition |  |
| CCCC(NC(=O)/C(C#N)=C/c1ncc[nH]1)c1ccc(O)cc1 (stereo not drawn) [Compound 11, (E)-2-Cyano-N-(1-(4-hydroxyphenyl)butyl)-3-(1H-imidazol-2-yl)acrylamide] |  |  |  | Western Targets: DUB activity (DUB activity): USP9X and DUB activity: no effect; Western Targets: USP9X (USP9X): USP9X and DUB activity: no effect |
| CCCC(NC(=O)/C(C#N)=C/c1cccc(Br)n1)c1ccc(OCCN(CC)CC)cc1 (stereo not drawn) [Compound 33, (E)-3-(6-Bromopyridin-2-yl)-2-cyano-N-(1-(4-(2-(diethylamino)ethoxy)phenyl)butyl)acrylamide] | 2 to 2.5 | Less sensitive | Same |  |
| CCCC(NC(=O)/C(C#N)=C/c1cccc(Br)n1)c1ccc(OCCN(C)C)cc1 (stereo not drawn) [Compound 35, (E)-3-(6-Bromopyridin-2-yl)-2-cyano-N-(1-(4-(2-(dimethylamino)ethoxy)phenyl)butyl)acrylamide] | 2 | Less sensitive | Inconclusive |  |
| CCCC(NC(=O)/C(C#N)=C/c1cccc(Br)n1)c1ccc(OCCOCCOCCNC(=O)CCCC[C@@H]2SC[C@@H]3NC(=O)N[C@@H]32)cc1 (stereo partly drawn) [Compound 48, N-(2-(2-(2-(4-(1-((E)-3-(6-Bromopyridin-2-yl)-2-cyanoacrylamido)butyl)phenoxy)ethoxy)ethoxy)ethyl)-5-((3aS,4S,6aR)-2-oxohexahydro-1H-thieno[3,4-d]imidazol-4-yl)pentanamide] | 1.5 |  |  |  |
| Cc1ccc(NC(=O)c2ccc(CN3CCN(C)CC3)cc2)cc1Nc1nccc(-c2cccnc2)n1 [imatinib, reference compound] |  |  |  | Usp9x activity (HA-UbVs labeling) (USP9X): none of the kinase inhibitors examined had significant Usp9x inhibitory activity |
| CCC[C@H](NC(=O)/C(C#N)=C/c1ncc[nH]1)c1ccccc1 [Compound 42, (S,E)-2-Cyano-3-(1H-imidazol-2-yl)-N-(1-phenylbutyl)acrylamide] | 0.5 | Less sensitive | Less sensitive |  |
| CCC[C@H](NC(=O)/C(C#N)=C/c1cccc(Cl)n1)c1ccccc1 [Compound 41, (S,E)-2-Cyano-3-(6-chloropyridin-2-yl)-N-(1-phenylbutyl)acrylamide] | 2 | Less sensitive | Inconclusive |  |
| CCCC(NC(=O)/C(C#N)=C/c1ncc[nH]1)c1ccc(OCOC)cc1 (stereo not drawn) [Compound 10, (E)-2-Cyano-3-(1H-imidazol-2-yl)-N-(1-(4-(methoxymethoxy)phenyl)butyl)acrylamide] |  |  |  | Western Targets: DUB activity (DUB activity): USP9X and DUB activity: no effect; Western Targets: USP9X (USP9X): USP9X and DUB activity: no effect |
